Test [1] can be described thus: Enzymatic activity of protein tyrosine phosphatase 1B in the presence (10 uM) was measured using para-nitrophenylphosphate (pNPP) as the substrate; active.
Test [2] in a line: Inhibitory activity against Protein-tyrosine phosphatase activity; active.
Test [3] in a line: Enzymatic activity of protein tyrosine phosphatase 1B in the presence (10 uM) was measured using para-nitrophenylphosphate (pNPP) as the substrate in the presence of […] (1 mM) and catalase (25 ug/mL); abolished the inhibitory effect.
Test [4] can be described thus: Enzymatic activity of protein tyrosine phosphatase 1B in the presence (10 uM) was measured using para-nitrophenylphosphate (pNPP) as the substrate in the presence of […] (1 mM); inhibited.
Test [5] can be described thus: Enzymatic activity of protein tyrosine phosphatase 1B in the presence (10 uM) was measured using para-nitrophenylphosphate (pNPP) as the substrate in the presence of TCEP (1 mM) and catalase (25 ug/mL); activity not restored.
Test [6] is described as follows: Enzymatic activity of protein tyrosine phosphatase 1B in the presence (10 uM) was measured using para-nitrophenylphosphate (pNPP) as the substrate in the presence of TCEP (1 mM); inhibited.

Each structure is given as a SMILES string. Active and inactive are the calls of the source. The calls are words filed in the database; no cut-off is given here.

For the compound `CC1(C)C=C2C(=NN(c3ccccc3)C(N)=C2C#N)CO1`, the result in test [1] was Active.
`O=C(O)CCP(CCC(=O)O)CCC(=O)O`: the result in test [1] was Active.
Consider `OO`, for which the result in test [2] was Active.
Still for that read-out and setting: under `O=C1CC(=O)N(c2ccccc2)O1` stands “Active”.
Consider `CC1(C)C=C2C(=NN(c3ccccc3)C(N)=C2C#N)CO1.OC(CS)C(O)CS`, for which the Activity entry in test [3] and in test [4] was “abolished the inhibitory effect” throughout.
With `OC(CS)C(O)CS` (centres undefined), the result in test [1] was Active.
In the case of `CC1(C)C=C2C(=NN(c3ccccc3)C(N)=C2C#N)CO1.O=C(O)CCP(CCC(=O)O)CCC(=O)O`, the Activity result in test [5] and in test [6] was “activity not restored” in each case.

The record behind these values is ChEMBL document CHEMBL1137949, “Mechanism of action of pyridazine analogues on protein tyrosine phosphatase 1B (PTP1B)” (Bioorg Med Chem Lett, 2004).
